Experimental findings from patent US20240368133A1, “Compounds for the Treatment of Pain, in Particular, Neuropathic Pain, and/or Other Diseases or Disorders that are Associated with AT2R and/or AT2R Mediated Signaling” (Confo Therapeutics N.V., priority 2021, published 2024) are described below.

Molecules are shown by their SMILES. Where only a bound is given, the exact number is not on record here.

Format in all cases: in vitro ADME
The nature of series [1]: Metabolic stability in hepatocytes, mouse. Particulars: hepatocytes (cryopreserved), read-out: Mouse Clint (μL/min/10^6 cells). The procedure:
(§1) The aim of this assay is to determine the metabolic stability of the compound in hepatocytes (cryopreserved) of different species (mouse CD1, rat Sprague Dawley, dog Beagle). Low hepatocyte stability may result in the formation of unwanted metabolites, high clearance, and therefore is not desirable. The decrease in parent was assessed by measuring the percentage remaining by LC-MS/MS analysis. The batches of hepatocytes were tested for quality control using Testosterone, Umbelliferone and Caffeine as reference compounds.
A 10 mM stock solution of test compound in DMSO was first diluted in DMSO to 3 mM, and then in modified Krebs-Henseleit buffer (Sigma, K3753) to 5 μM. This compound dilution was added to a suspension of pooled cryopreserved hepatocytes (BioIVT) at 37° C. under gentle shaking. Final reaction conditions were: 1 μM of test compound, <0.1% DMSO, 0.5 million viable hepatocytes/mL, and 75 μL incubation volume.
After 0, 10, 20, 45, 90, 120 and 180 min of incubation, the reaction was terminated with 3 volumes of MeCN:MeOH (2:1) containing diclofenac as analytical internal standard. Samples were mixed, centrifuged and the supernatant analyzed by LC-MS/MS (systems API4000). The instrument responses (ratios of test compound and internal standard peak areas) were referenced to the zero time point samples (considered as 100%) in order to determine the percentage of compound remaining. Plots of percentage compound remaining were used to determine the intrinsic clearance in the hepatocyte incubations.
(§2) Testosterone (1 μM) and Umbelliferone (1 μM) and Caffeine (1 μM) were used as reference compounds, being unstable and stable compounds respectively. If the hepatocyte stability values for these controls are not in the range determined by the historical data, the assay is not validated.

Series [2] can be described thus: Plasma protein binding (equilibrium dialysis), dog. Particulars: for fraction unbound at 4 h, 5 µM: equilibrium dialysis, read-out: PPB (%), dog (converted); for recovery at 4 h, 5 µM: plasma (freshly thawed), PPB assay recovery. How it is done: Prior to the start of the experiment, dialysis membranes (membrane strips, MW cut-off 12-14 kDa, HTDialysis, Cat.NoJl 101) are soaked in deionized water for 60 min, transferred and left overnight in 20% EtOH. The day of experiment, a 10 mM stock solution of the compound in DMSO is diluted with a factor 10 in DMSO. This solution is further diluted in freshly thawed human, rat, mouse or dog plasma (BioIVT) with a final concentration of 5 μM and final DMSO concentration of 0.5%.
From this solution, an aliquot of 50 μL was taken and matrix matched with an equivalent volume of PBS for the recovery plate, after which 6 volumes of STOP solution were added to the recovery plate. For these recovery plates, no incubation is done.
Equilibrium Dialysis Device (96-well, model HTD96b, HTDialysis, Cat. No. #1006) is assembled according to manufacturer's instructions. Immediately after assembly, a volume of 100 μL of plasma (spiked with compound) is placed on one side of the well and another 100 μL of blank PBS buffer are added to the other side, respectively. Each compound is tested in duplicate. Acebutolol and Nicardipine are used as low and very high binding controls, except for the mouse, Caffeine is used as low binder instead Acebutolol. If the PPB values for these controls are not in the range determined by the historical data, the assay is not validated.
The plate is incubated for 4 h at 37° C. while shaking at 230 rpm. Thereafter, an aliquot of 50 μL is taken from each side of the well and matrix matched (mix of equal volumes of spiked plasma with blank PBS buffer and samples from buffer compartment with blank plasma). Matrix matched samples are further mixed with 3 volumes of STOP solution (acetonitrile/MeOH 2/1 with diclofenac as internal standard). After brief mixing and centrifugation (at 2400 rpm for 15 min, at +4° C.), the supernatant is filtered and transferred into new 96-well plates for analysis on LC-MS/MS (systems API4000).
The percentage of plasma protein bound compound and recovery were calculated using following equations:
with: • Cplasma=peak area of the compound in the plasma/peak area of the IS in the plasma • Cbuffer=peak area of the compound in the buffer/peak area of the IS in the buffer • ‘Concentration’ is the ratio between compound and IS peak areas
The recovery is a control, which allows to be sure that the compound has not a non-specific binding to the plates or is not stable in the plasma in these conditions:
with: • PBS=(ratio of the peak area of the compound/peak area of the IS) in the PBS compartment after 4 h • Plasma=(ratio of the peak area of the compound/peak area of IS) in the plasma compartment after 4 h • Recov=Recovery=ratio of the peak are of the compound I the well recovery/peak area of the IS in the well recovery at TO […]
(Equilibrium dialysis compares concentrations on both sides of a semipermeable membrane.)

A short description of series [3]: Caco-2 permeability assay. Particulars: human, pH 7.4; Caco-2, BA. A general note: Passage across Caco-2 layers is used to estimate intestinal permeability.
The nature of series [4]: Metabolic stability in hepatocytes, dog. To be noted: Beagle, pooled cryopreserved hepatocytes, read-out: Dog Clint (μL/min/10^6 cells). The procedure:
as §1
A 10 mM stock solution of test compound in DMSO was first diluted in DMSO to 3 mM, and then in modified Krebs-Henseleit buffer (Sigma, K3753) to 5 μM. This compound dilution was added to a suspension of pooled cryopreserved hepatocytes (BioIVT) at 37° C. under gentle shaking. […]
After 0, 10, 20, 45, 90, 120 and 180 min of incubation, the reaction was terminated with 3 volumes of MeCN:MeOH (2:1) containing diclofenac as analytical internal standard. Samples were mixed, centrifuged and the supernatant analyzed by LC-MS/MS (systems API4000). […]
as §2

On to `CC(C)Cc1cc(F)c(-c2nn[nH]n2)c(N2CCN(Cc3cccnn3)C(C)C2)c1` (stereo not shown) [Compound A-173, 3-[[4-[3-fluoro-5-isobutyl-2-(2H-tetrazol-5-yl)phenyl]-2-methyl-piperazin-1-yl]methyl]pyridazine], for which, in series [1], the hepatocyte CLint was 4 µL/min/1e6 cells.
In the case of `CC(C)Cc1cc(F)c(-c2nn[nH]n2)c(N2CCN(Cc3cccnn3)[C@@H](C)C2)c1` [Compound A-174, 3-[[(2S)-4-[3-fluoro-5-isobutyl-2-(2H-tetrazol-5-yl)phenyl]-2-methyl-piperazin-1-yl]methyl]pyridazine], the hepatocyte CLint in series [1] is < 5.4 µL/min/1e6 cells. Further, in series [2], the fraction unbound at 4 h, 5 µM is 0.062 and the recovery at 4 h, 5 µM turned out to be 97%. The Papp B→A (commonly the apparent permeability from the basolateral to the apical side of a cell layer) at 90 min, 10 µM in series [3] is 2.4 ×10⁻⁶ cm/s. Further, the hepatocyte CLint at 1 µM in series [4] is < 5.1 µL/min/1e6 cells.
On to `CCC1CN(c2cc(CC(C)C)cc(F)c2-c2nn[nH]n2)CCN1Cc1cccnn1` (stereo not shown) [Compound A-178, 3-[[2-ethyl-4-[3-fluoro-5-isobutyl-2-(2H-tetrazol-5-yl)phenyl]piperazin-1-yl]methyl]pyridazine], for which the hepatocyte CLint in series [1] stood at 0.8 µL/min/1e6 cells. For the same compound, in series [3], the Papp B→A at 90 min, 10 µM is 8.6 ×10⁻⁶ cm/s.
As for `CCC1CN(Cc2cccnn2)CCN1c1cc(CC(C)C)cc(F)c1-c1nn[nH]n1` (stereo not shown) [Compound A-181, 3-[[3-ethyl-4-[3-fluoro-5-isobutyl-2-(2H-tetrazol-5-yl)phenyl]piperazin-1-yl]methyl]pyridazine], in series [1], the hepatocyte CLint was found to be 1 µL/min/1e6 cells.
The same measure, in the same setting: the result for `CC(C)Cc1cc(F)c(-c2nn[nH]n2)c(N2CC(C)N(Cc3cccnn3)CC2C)c1` (stereo not shown) [Compound A-183, 3-[[4-[3-fluoro-5-isobutyl-2-(2H-tetrazol-5-yl)phen-yl]-2,5-dimethyl-piperazin-1-yl]-methyl]pyridazine] reads 2 µL/min/1e6 cells.
Consider `CC(C)Cc1cc(F)c(-c2nn[nH]n2)c(N2CCN(Cc3ccccn3)[C@@H](C)C2)c1` [Compound A-217, (2S)-4-[3-fluoro-5-isobutyl-2-(2H-tetrazol-5-yl)phenyl]-2-methyl-1-(2-pyridylmethyl)piperazine], for which, in series [2], the fraction unbound at 4 h, 5 µM was 0.042 and the recovery at 4 h, 5 µM was determined as 96%. The hepatocyte CLint at 1 µM in series [4] is < 5.1 µL/min/1e6 cells.
